Test [1] has as its system NCI-H1299. Kind of test: Proliferation assay: cell line panel, NCI-H1299. The test is classed as cell-based. Particulars: Homo sapiens, 96 h, lung cancer, non-small cell, 4 days, read-out: Result Category, IC50 (mean). From the text:
(§1) Human tumour cells were originally obtained from the American Type Culture Collection (ATCC), from Cell Line Services GmbH (CLS), from the Deutsche Sammlung von Mikroorganismen und Zellkulturen (DSMZ, German Collection of Microorganisms and Cell Cultures), from the Japanese Cancer Research Resources Bank (JCRB), from Public Health England, from the European Collection of Authenticated Cell Cultures (ECACC), from Asterand Biosciences, or from the National Cancer Institute (NCI). Cultivated tumour cells were plated at the density as indicated in Table 6 in 96-well multitier plates in 200 microL of their respective growth medium supplemented 10% fetal calf serum. […] Cell proliferation was determined by staining the cells with crystal violet: the cells were fixed by adding 20 microL/measuring point of an 11% glutaric aldehyde solution for 15 minutes at room temperature. […] The extinction was determined by photometry at a wavelength of 595 nm. The change of cell number, in percent, was calculated by normalization of the measured values to the extinction values of the zero-point plate (=0%) and the extinction of the untreated (0 μM) cells (=100%). […]

The test system of test [2] is AU565. Kind of test: Proliferation assay: cell line panel, AU565. The settings on record: Homo sapiens, 96 h, breast cancer, HER2 positive, 4 days, read-out: Result Category, IC50 (mean). It counts as cell-based.
Source text: as §1

In test [3] the test system is JHH-7. Kind of test: Proliferation assay: cell line panel, JHH-7. The test is classed as cell-based. The settings on record: Homo sapiens, JHH7, 96 h, liver cancer, 4 days, read-out: Result Category, IC50 (mean).
Source text: as §1

Test [4] has as its system HCC1954. Kind of test: Proliferation assay: cell line panel, HCC1954. Particulars: Homo sapiens, 96 h, breast cancer, HER2 positive, 4 days, read-out: Result Category, IC50 (mean). The test is classed as cell-based.
Source text: as §1

In test [5] the test system is CAL-120-CDK12d-res. Kind of test: Proliferation assay CDK12 degrader resistant CAL-120. The test is classed as cell-based, human. The settings on record: for IC50: Homo sapiens, 96 h, CDK12 degrader resistant CAL-120 cells, 4 days, median, read-out: Prolif-CAL-120-CDK12d-res, IC50 - [mol/l] (median); for Ratio (Prolif-CAL-120-CDK12d-res IC50 / Prolif-CAL-120 IC50): resistant versus parental CAL-120 cells. From the text: (§2) CDK12-degrader resistant cells were generated by propagation of CAL-120 human breast adenocarcinoma cells (DSMZ ACC-459) and MDA-MB-231 human breast cancer cells (ATCC HTB-26) in presence of increasing concentrations of the CDK12 degrader compound example 4 from WO 2021/116178. Initial concentrations of example 4 were 2.0E-08 M for CAL-120 cells and 4.6E-08 M for MDA-MB-231 cells, corresponding to ca. 2-fold the IC50 of inhibition of the cells in an proliferation assay. After the treated cells recovered and proliferated again the concentration of compound example 4 was increased to 3-fold IC50.
(§3) To determine the inhibitory effect of test compounds on proliferation of CAL-120-CDK12d-res, MDA-MB-231-CDK12d-res the cells were plated at a density of 4,000 cells/well in a 96-well multitier plate in 200 microL of their respective growth medium supplemented 10% fetal calf serum. After 24 hours, the cells of one plate (zero-point plate) were stained with crystal violet (see below), while the medium of the other plates was supplemented with the test substances in various concentrations (0 micromol/L, as well as in the range of 0.01-10 micromol/L; the final concentration of the solvent dimethyl sulfoxide was adjusted to 0.1%) using a Tecan HP D300 Digital Dispenser. The cells were incubated for 4 days in the presence of test substances. Cell proliferation was determined by staining the cells with crystal violet: the cells were fixed by adding 20 microL/measuring point of an 11% glutaric aldehyde solution for 15 minutes at room temperature. After three washing cycles of the fixed cells with water, the plates were dried at room temperature. The cells were stained by adding 100 microL/measuring point of a 0.1% crystal violet solution (pH 3.0). After three washing cycles of the stained cells with water, the plates were dried at room temperature. The dye was dissolved by adding 100 microL/measuring point of a 10% acetic acid solution. The extinction was determined by photometry at a wavelength of 595 nm. The change of cell number, in percent, was calculated by normalization of the measured values to the extinction values of the zero-point plate (=0%) and the extinction of the untreated (0 μM) cells (=100%). The IC50 values (inhibitory concentration at 50% of maximal effect) were determined by means of a 4 parameter fit.

The subject of test [6] is HT-144. Kind of test: Proliferation assay: cell line panel, HT-144. The test is classed as cell-based. The settings on record: Homo sapiens, 96 h, melanoma, 4 days, read-out: Result Category, IC50 (mean).
Source text: as §1

In test [7] the test system is MDA-MB-231-CDK12d-res. The test is described as follows: Proliferation assay CDK12 degrader resistant MDA-MB-231. The settings on record: for IC50: Homo sapiens, 96 h, CDK12 degrader resistant MDA-MB-231 cells, 4 days, median, read-out: Prolif-MDA MB-231-CDK12d-res, IC50 - [mol/] (median); for Ratio (Prolif-MDA MB-231-CDK12d-res IC50 / Prolif-MDA MB-231 IC50): resistant versus parental MDA-MB-231 cells. It counts as cell-based, human.
Source text: as §2, §3

Test [8] has as its system CYCLIN K. Kind of test: CYCLIN K nuclear protein level: immunofluorescence/high content analysis in CAL-120 cells. The test is classed as cell-based, human. Particulars: 24 h, nuclear CCNK staining intensity, median, read-out: CYCLIN K degradation IF, DC50 - [mol/l] (median). The procedure: CAL-120 human breast cancer cells (DSMZ ACC 459) are seeded in 1536-well microtiter plates (800 cells per well) containing 50 nanoL of compounds in Dose-Response. Control wells received DMSO or Example 4. Plates are then incubated for 24 h at 37° C. in an humidified incubator and fixed with 4% PFA for 10 min. Then immunofluorescence (IF) against CYCLIN K (ThermoFisher Scientific CCNK Antibody #PA5-85020, rabbit, 1:200 dilution) is performed using standard IF protocols. Cells are then stained with Hoechst 33342 (Life Technologies, H-1399, 0.1 microg/ml) and imaged on an automated confocal microscopy system (e.g. Perkin Elmer Opera Phenix). Nuclear and cytoplasmic intensity as well as the nuclear/cytoplasmic intensity ratio is determined by automated image analysis using custom generated scripts (MetaXpress). Data is then transferred to Genedata Screener software, normalized to DMSO and control and DC50 values (degrading concentration to achieve 50% reduction of nuclear CCNK staining intensity relative to controls) are reported.

Regarding `FC(F)(F)c1ccc(-c2cnc(CNc3nc(N4CCOCC4)nn4c(C(F)(F)F)cnc34)[nH]2)cc1` [Example 7, 2-(morpholin-4-yl)-7-(trifluoromethyl)-N-({5-[4-(trifluoromethyl)phenyl]-1H-imidazol-2-yl}methyl)imidazo[2,1-f][1,2,4]triazin-4-amine], the IC50 was no less than 0.1 µM in test [1]; 0.03 to 0.1 µM in test [2]; no less than 0.1 µM in test [3]; 0.03 to 0.1 µM in test [4]; 0.112 µM in test [5]; 0.03 to 0.1 µM in test [6]. The IC50 in test [7] came to 0.156 µM. Also, in test [5], the “Ratio (Prolif-CAL-120-CDK12d-res IC50 / Prolif-CAL-120 IC50)” value is recorded as 1.1. For the same molecule, the “Ratio (Prolif-MDA MB-231-CDK12d-res IC50 / Prolif-MDA MB-231 IC50)” value in test [7] is 1.7.

For `FC(F)(F)Oc1ccc(-c2cnc(CNc3nc(N4CCOCC4)nn4c(C(F)(F)F)cnc34)[nH]2)cc1` [Example 8, 2-(morpholin-4-yl)-N-({5-[4-(trifluoromethoxy)phenyl]-1H-imidazol-2-yl}methyl)-7-(trifluoromethyl)imidazo[2,1-f][1,2,4]triazin-4-amine], the IC50 in test [1] was no less than 0.1 µM; in test [2], no more than 0.03 µM; in test [3] it was 0.03 to 0.1 µM; in test [4] it was 0.03 to 0.1 µM; in test [5] it was 0.173 µM; in test [6] it was 0.03 to 0.1 µM. Also, in test [7], the IC50 is 0.178 µM. Also, in test [8], the DC50 was greater than 1 µM. In test [5], the “Ratio (Prolif-CAL-120-CDK12d-res IC50 / Prolif-CAL-120 IC50)” value was found to be 1.9. Also, the “Ratio (Prolif-MDA MB-231-CDK12d-res IC50 / Prolif-MDA MB-231 IC50)” value in test [7] worked out at 1.6.
